The text below walks through data of EP1248603B1, “USE OF PARTICULAR COMPOUNDS FOR PROPHYLAXIS AND TREATMENT OF HEPATITIS C” (Morphochem AG, priority 2000, dated 2001).

Read-outs that look alike come from different tables or passages of the source.

This assay has as its target T1, NS3 Proteinase (Hepatitis C virus genotype 1b, UniProt P26663).
T1 construct: beschriebenen NS3 Proteinase-Assay bestimmt
Put plainly: NS3 proteinase assay (analogous to Taliani et al., Analytical Biochemistry 240 (1996) 60-67; evaluation with GraFit 4). It counts as biochemical. From the text:
Die IC50-Werte wurden analog zu dem in: M. Taliani et al., Analytical Biochemistry, 240 (1996) 60-67 beschriebenen NS3 Proteinase-Assay bestimmt. Die Auswertung erfolgte mit Hilfe des Programms "GraFit 4" der Firma Erithacus Software Ltd. (Staines, Middlesex, UK).

T1 sequence (P26663 1027-1657, other chains not shown): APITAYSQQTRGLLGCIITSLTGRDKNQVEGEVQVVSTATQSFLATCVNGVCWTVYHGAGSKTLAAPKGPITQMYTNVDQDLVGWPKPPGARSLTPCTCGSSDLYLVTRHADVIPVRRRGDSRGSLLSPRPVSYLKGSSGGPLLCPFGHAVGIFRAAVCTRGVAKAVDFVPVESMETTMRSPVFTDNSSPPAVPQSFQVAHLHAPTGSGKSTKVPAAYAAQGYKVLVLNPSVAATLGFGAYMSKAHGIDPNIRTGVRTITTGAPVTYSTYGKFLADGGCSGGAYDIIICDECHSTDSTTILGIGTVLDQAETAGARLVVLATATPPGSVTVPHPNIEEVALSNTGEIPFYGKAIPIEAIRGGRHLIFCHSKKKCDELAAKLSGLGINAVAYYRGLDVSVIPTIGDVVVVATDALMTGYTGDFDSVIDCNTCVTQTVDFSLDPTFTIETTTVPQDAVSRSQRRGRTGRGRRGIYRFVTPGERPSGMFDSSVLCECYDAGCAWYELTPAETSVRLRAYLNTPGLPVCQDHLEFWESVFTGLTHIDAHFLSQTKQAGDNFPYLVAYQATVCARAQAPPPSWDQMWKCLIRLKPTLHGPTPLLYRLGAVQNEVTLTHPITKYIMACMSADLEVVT

Usually IC50 stands for the concentration that inhibits the measured activity by half. `Oc1ccc(NCc2ccccc2)c2ccccc12` [Beispiel 4, 1-Benzylamino-4-naphthol]: the IC50 (read-out: IC50) came out at 25 µM.

Take `Nc1ccc(O)c2ncccc12` [Beispiel 5, 5-Amino-8-hydroxychinolin]: under “read-out: IC50”, the IC50 came to 51 µM. Turning to `CC1=CC(=O)c2ccccc2C1=O` [Beispiel 1, Menadion], the IC50 (read-out: IC50) stood at 45 µM. For `O=C1C=CC(=O)c2ccccc21` [Beispiel 2, 1,4-Naphthochinon], 20 µM corresponded to half-maximal inhibition (IC50). For the compound `Nc1ccc(O)c2ccccc12` [Beispiel 3, 1-Amino-4-naphthol], the IC50 (read-out: IC50) is 13 µM.
